{"source": "patent US20260008862A1", "about": "“Bispecific Anti-BCMA x Anti-CD3 Antibodies and Uses Thereof” (Regeneron Pharmaceuticals, Inc., priority 2018, published 2026)", "key": {"[1]": {"tested_on": "MC38/BCMA tumors", "assay": "Syngenic MC38/BCMA tumor model in CD3-humanized mice (Example 16)", "format": "in vivo, mouse", "method": "(§1) To determine the in vivo efficacy of anti-BCMA×anti-CD3 bispecific antibodies (Abs), a syngenic tumor study was performed in mice expressing human CD3. C57BL/6 mice that express human CD3deg in place of murine CD3deg (CD3-humanized mice) were subcutaneously implanted with either 0.5×10^6 B16 melanoma cells that have been engineered to express full-length human BCMA (B16/BCMA cells) or 1×10^6 MC38 colon carcinoma cells that have been engineered to express full-length human BCMA (MC38/BCMA). […] The mice were administered these Abs twice more on days 4 and 7 for a total of three doses, and tumor growth was assessed throughout the experiment.\n(§2) Implantation and measurement of syngenic tumors: C57BL/6 mice that express human CD3deg in place of murine CD3deg (CD3-humanized mice) were subcutaneously implanted with either 0.5×10^6 B16F10 melanoma cells that have been engineered to express full-length human BCMA (B16/BCMA cells) or 1×10^6 MC38 colon carcinoma cells that have been engineered to express full-length human BCMA (MC38/BCMA). […] The mice were administered these Abs twice more on days 4 and 7 for a total of three doses, and tumor growth was assessed throughout the experiment.\n(§3) Calculation of syngenic tumor growth and inhibition: In order to determine tumor volume by external caliper, the greatest longitudinal diameter (length in mm) and the greatest transverse diameter (width in mm) were determined. Tumor volumes based on caliper measurements were calculated by the formula: Volume (mm^3)=(length×width^2)/2."}, "[2]": {"tested_on": "primary human plasma cells (CD138+)", "assay": "Autologous T cell-mediated killing of human plasma cells", "format": "cell-based", "method": "The specific killing of enriched CD138^+ human or cynomolgus monkey plasma cells by unstimulated autologous T cells was assessed by flow cytometry. Human or cynomolgus bone marrow aspirates and blood were provided within 24 hours of harvest. CD138^+ plasma cells were enriched from bone marrow by positive selection using the EasySep™ Human CD138^+ Positive Selection kit according to the manufacturer's instructions. PBMC from whole blood were isolated by density separation. PBMC were labeled with 1 μM of Vybrant™ CFDA-SE fluorescent tracking dye. […] At the end of the culture, surviving CD138^+ plasma cells were analyzed by flow cytometry, utilizing fixable LIVE/DEAD dye and plasma cell specific cell surface markers. Percent viability was normalized to control condition (plasma cells in the presence of PBMC only). T cell activation was assessed by flow cytometry. Activation is reported as the percentage of CD2^+/CD4^+ or CD2^+/CD8^+/CD16^− T cells expressing CD25. Percent T cell activation was normalized to control condition (plasma cells in the presence of PBMC only)."}, "[3]": {"tested_on": "B16/BCMA tumors", "assay": "Syngenic B16/BCMA tumor model in CD3-humanized mice (Example 16)", "format": "in vivo, mouse", "settings": "for Average Tumor Size (mm3) ± SEM on Day 5 / Average Tumor Size (mm3) ± SEM on Day 10 / Average Tumor Size (mm3) ± SEM on Day 14 / Average Tumor Size (mm3) ± SEM on Day 18: B16/BCMA Tumor", "method": "as §1, §2, §3"}, "[4]": {"target": "T1, primary cynomolgus CD8+ T cells (Macaca fascicularis, UniProt Q95LI5+Q95LI8)", "T1 construct": "endogenous in cells; host or cells: primary cynomolgus CD8+ T cells (gated CD8+/CD16-)", "T1 sequence (Q95LI5 22-198)": "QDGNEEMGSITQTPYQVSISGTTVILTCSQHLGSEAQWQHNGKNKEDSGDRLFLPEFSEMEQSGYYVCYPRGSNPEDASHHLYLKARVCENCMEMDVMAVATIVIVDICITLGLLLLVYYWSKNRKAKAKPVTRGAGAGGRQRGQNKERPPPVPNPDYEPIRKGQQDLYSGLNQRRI", "T1 sequence (Q95LI8 22-171)": "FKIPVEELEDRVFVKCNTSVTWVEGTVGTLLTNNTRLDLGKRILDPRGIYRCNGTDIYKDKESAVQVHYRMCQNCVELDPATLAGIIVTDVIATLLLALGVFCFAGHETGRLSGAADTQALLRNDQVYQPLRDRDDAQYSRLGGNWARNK", "T1 sequence (Q95LI7 23-181 partner)": "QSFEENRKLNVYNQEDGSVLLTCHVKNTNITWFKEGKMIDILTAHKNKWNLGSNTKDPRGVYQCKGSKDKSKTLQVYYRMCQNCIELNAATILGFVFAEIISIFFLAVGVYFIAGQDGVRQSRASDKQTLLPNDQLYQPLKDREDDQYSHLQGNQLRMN", "assay": "FACS binding to primary cynomolgus CD8+ T cells", "settings": "median EC50, FACS binding", "method": "Flow cytometric analysis was utilized to determine binding of BCMA×CD3 bispecific antibodies to human and cynomolgus CD3 (Jurkat cells, mfCD3 engineered Jurkat cells, primary human CD8+ and cynomolgus CD8+ T cells). Briefly, 1e05 cells/well were incubated in the presence of FACS wash with block (PBS+1% filtered FBS+5% mouse serum) with a serial dilution of BCMA×CD3 and control antibodies for 30 minutes on ice. After incubation, the cells were washed twice with cold FACS wash (PBS+1% filtered FBS) and bound antibody was detected by incubating with Alexa647-conjugated anti-human secondary antibody on ice for an additional 30 minutes. Wells containing no antibody or secondary only were used as a control. For the detection of monkey and human T cells, a cocktail of human and cynomolgus cross-reactive antibodies to CD4, CD8 and CD16 was added to the anti-human secondary. After incubation, cells were washed, re-suspended in 200 μL cold PBS containing 1% filtered FBS and analyzed by flow cytometry on a BD FACS Canto II. Cells were gated by FSC-H by FSC-A to select singlet events, followed by side and forward scatters to select for live events. For monkey T cells, additional gating on CD8+/CD16− cells was performed.\nEC50 values for FACS binding were calculated using 4-parameter non-linear regression analysis in Prism software."}, "[5]": {"target": "T2, human BCMA-MMH (Homo sapiens, UniProt Q02223)", "T2 construct": "(human BCMA-MMH); myc-myc-hexahistidine (C); made in house", "T2 sequence (Q02223 with tags, fused parts or gaps)": "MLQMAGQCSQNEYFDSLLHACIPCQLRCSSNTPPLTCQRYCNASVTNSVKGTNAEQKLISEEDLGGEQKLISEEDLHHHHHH", "assay": "SPR (Biacore 4000) binding kinetics to human BCMA-MMH", "settings": "25° C.", "method": "The CM5 Biacore sensor surface was derivatized by amine coupling with a monoclonal mouse anti-human Fc antibody (GE, #BR-11008-39) to capture purified anti-BCMA mAbs and anti-BCMA×anti-CD3 bispecific mAbs. All Biacore binding studies were performed in a buffer composed of 0.01 M HEPES pH 7.4, 0.15M NaCl, 3 mM EDTA, 0.05% v/v Surfactant P20 (HBS-ET running buffer). […] Antigen samples were then injected over the anti-BCMA and anti-BCMA×anti-CD3 bispecific mAbs captured surfaces at a flow rate of 30 μL/minute. Antibody-reagent association was monitored for 5 minutes while dissociation in HBS-ET running buffer was monitored for 10 minutes. All of the binding kinetics experiments were performed at 25° C. Kinetic association (ka) and dissociation (kd) rate constants were determined by fitting the real-time sensorgrams to a 1:1 binding model using Scrubber 2.0c curve fitting software. Binding dissociation equilibrium constants (KD) and dissociative half-lives (t½) were calculated from the kinetic rate constants as: […]"}}, "note": "“Also recorded” adds a separate entry of the source. Where two headings read alike, the source gives them in different places."}
{"substance": "REGN5458: anti-BCMA×anti-CD3 bispecific antibody: BCMA HCVR of mAb21581 (SEQ 66), CD3 HCVR of mAb7221G (SEQ 90), common LCVR SEQ 82", "values": [{"measurement": "Average Tumor Size (mm3) ± SEM on Day 5", "setting": "[1]; MC38/BCMA Tumor, 0.04 mg/kg, Day 5", "result": "11.9 ± 2.9", "unit": "mm3"}, {"measurement": "Average Tumor Size (mm3) ± SEM on Day 10", "setting": "[1]; MC38/BCMA Tumor, 0.04 mg/kg", "result": "66.7 ± 22.5", "unit": "mm3"}, {"measurement": "Average Tumor Size (mm3) ± SEM on Day 14", "setting": "[1]; MC38/BCMA Tumor, 0.04 mg/kg", "result": "273.3 ± 115.3", "unit": "mm3"}, {"measurement": "Average Tumor Size (mm3) ± SEM on Day 18", "setting": "[1]; MC38/BCMA Tumor, 0.04 mg/kg", "result": "641.5 ± 309.8", "unit": "mm3"}, {"measurement": "Average Tumor Size (mm3) ± SEM on Day 10", "setting": "[1]; MC38/BCMA Tumor, 0.4 mg/kg", "result": "0.0 ± 0.0", "unit": "mm3"}, {"measurement": "Average Tumor Size (mm3) ± SEM on Day 14", "setting": "[1]; MC38/BCMA Tumor, 0.4 mg/kg", "result": "2.9 ± 2.9", "unit": "mm3"}, {"measurement": "Average Tumor Size (mm3) ± SEM on Day 18", "setting": "[1]; MC38/BCMA Tumor, 0.4 mg/kg", "result": "7.5 ± 7.5", "unit": "mm3"}, {"measurement": "tumor growth (in words)", "setting": "[1]; MC38/BCMA, 0.4 or 0.04 mg/kg, three doses", "result": "suppress the growth of both tumor lines in a dose-dependent manner"}, {"measurement": "Cytotoxic Kill Max % Cytotoxicity", "setting": "[2]; Human Donor 1 plasma cells, autologous primary human T cells, E:T 10:1, 72 hours", "result": 91, "unit": "%"}, {"measurement": "EC50", "setting": "[2]; Human Donor 1 plasma cells, autologous primary human T cells, read-out: T Cell Activation (% CD25 Upregulation) CD8+ T cells EC50", "result": 0.214, "unit": "nM"}, {"measurement": "Cytotoxic Kill Max % Cytotoxicity", "setting": "[2]; Human Donor 2 plasma cells, autologous primary human T cells, E:T 10:1, 72 hours", "result": 89, "unit": "%"}, {"measurement": "EC50", "setting": "[2]; Human Donor 2 plasma cells, autologous primary human T cells, E:T 10:1, 72 hours, read-out: Cytotoxic Kill EC50", "result": 0.191, "unit": "nM"}, {"measurement": "T Cell Activation (% CD25 Upregulation) CD8+ T cells % Activation", "setting": "[2]; Human Donor 2 plasma cells, autologous primary human T cells, maximum", "result": 36, "unit": "%"}, {"measurement": "maximum percent cytotoxicity", "setting": "[2]; human donor 1", "result": 91, "unit": "%"}, {"measurement": "EC50", "setting": "[2]; human donor 1, CD25, read-out: CD8+ T cell activation EC50", "result": 0.214, "unit": "nM"}, {"measurement": "EC50", "setting": "[2]; human donor 1, read-out: cytotoxicity EC50", "result": 0.0428, "unit": "nM"}, {"measurement": "maximum percent CD8+ T cell activation", "setting": "[2]; human donor 2", "result": 36, "unit": "%"}, {"measurement": "maximum percent cytotoxicity", "setting": "[2]; human donor 2", "result": 89, "unit": "%"}, {"measurement": "EC50", "setting": "[2]; human donor 2, CD25, read-out: CD8+ T cell activation EC50", "result": 0.86, "unit": "nM"}, {"measurement": "EC50", "setting": "[2]; human donor 2, read-out: cytotoxicity EC50", "result": 0.191, "unit": "nM"}, {"measurement": "Average Tumor Size (mm3) ± SEM on Day 5", "setting": "[3]; 0.04 mg/kg", "result": "3.3 ± 2.2", "unit": "mm3"}, {"measurement": "Average Tumor Size (mm3) ± SEM on Day 10", "setting": "[3]; 0.04 mg/kg", "result": "15.4 ± 12.5", "unit": "mm3"}, {"measurement": "Average Tumor Size (mm3) ± SEM on Day 14", "setting": "[3]; 0.04 mg/kg", "result": "81.4 ± 49.2", "unit": "mm3"}, {"measurement": "Average Tumor Size (mm3) ± SEM on Day 18", "setting": "[3]; 0.04 mg/kg", "result": "127.2 ± 63.9", "unit": "mm3"}, {"measurement": "Average Tumor Size (mm3) ± SEM on Day 5", "setting": "[3]; 0.4 mg/kg", "result": "0.0 ± 0.0", "unit": "mm3"}, {"measurement": "Average Tumor Size (mm3) ± SEM on Day 10", "setting": "[3]; 0.4 mg/kg", "result": "0.0 ± 0.0", "unit": "mm3"}, {"measurement": "Average Tumor Size (mm3) ± SEM on Day 14", "setting": "[3]; 0.4 mg/kg", "result": "8.1 ± 4.4", "unit": "mm3"}, {"measurement": "Average Tumor Size (mm3) ± SEM on Day 18", "setting": "[3]; 0.4 mg/kg", "result": "47.1 ± 17.0", "unit": "mm3"}, {"measurement": "tumor growth (in words)", "setting": "[3]; B16/BCMA, 0.4 or 0.04 mg/kg, three doses", "result": "suppress the growth of both tumor lines in a dose-dependent manner"}]}
{"substance": "REGN5459: anti-BCMA×anti-CD3 bispecific antibody: BCMA HCVR of mAb21581 (SEQ 66), CD3 HCVR of mAb7221G20 (SEQ 98), common LCVR SEQ 82", "values": [{"measurement": "Mf (Cyno) CD8+ T cells EC50 [M]", "setting": "[4]", "result": "did not bind; also recorded: No binding"}, {"measurement": "ka", "setting": "[5]", "result": 730000, "unit": "M⁻¹ s⁻¹"}, {"measurement": "kd", "setting": "[5]", "result": 0.00101, "unit": "s⁻¹"}]}
